Tests used:
[1] = target: [MCL-1]-[compound of formula (I)]-[CRBN/DDB1] complex (Homo sapiens, UniProt Q07820+Q96SW2); test: AlphaLISA dose response ternary complex formation assay; format: binding; settings: read-out: AlphaLISA dose response Average pEC50 by molecule (converted)
In short: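 EC50 comes from dose–response of AlphaLISA luminescence (excitation 680, emission 615 nm), normalised between DMSO background and an internal positive control, with concentrations past the hook point dropped. Ternary complex formed by mixing bead-bound biotin-hMCL-1 and His-CRBN/DDB1 (protein solutions 40 and 200 nM) with compound in 2% DMSO, 30 min, 25 °C.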

MV-4-11 cells = test: Cell viability assay (CellTiter-Glo), MV-4-11; format: cell-based; settings: Homo sapiens, MV4-11, 24 hours incubation, 1% FBS, read-out: Average pIC50 by molecule MV-4-11 (converted)
In short: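 Luminescent ATP readout (CellTiter-Glo) at 24 hours measured viability, expressed relative to DMSO-treated wells. Compound was added directly to the medium as a 9–12-point threefold series starting at 30 uM, at 0.5% final DMSO. The medium contained FBS reduced to 1%.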

MCL-1 protein [2] = target: T1, MCL-1 protein (Homo sapiens, UniProt Q07820); test: OPM-2 cells: MCL-1 protein degradation, Western blot; format: cell-based; parameters: endogenous in cells; host or cells: OPM-2; settings: OPM-2 cell line, 6 h treatment, 100 nM compound, vs DMSO
T1 sequence (Q07820 whole entry): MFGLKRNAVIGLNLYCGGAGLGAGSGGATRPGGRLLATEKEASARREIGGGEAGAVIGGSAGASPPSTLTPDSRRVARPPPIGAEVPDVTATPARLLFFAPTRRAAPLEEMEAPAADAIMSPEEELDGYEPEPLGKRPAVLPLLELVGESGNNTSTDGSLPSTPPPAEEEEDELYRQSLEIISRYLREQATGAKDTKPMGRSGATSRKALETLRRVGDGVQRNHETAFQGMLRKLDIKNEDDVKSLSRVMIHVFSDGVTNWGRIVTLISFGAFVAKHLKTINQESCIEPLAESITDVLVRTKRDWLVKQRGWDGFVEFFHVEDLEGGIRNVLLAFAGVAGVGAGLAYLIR
Text: The effect of various compounds of the invention and the reference compounds on MCL-1 protein degradation in the OPM-2 cell line was investigated, using the degradation assay protocol below.
(§1) OPM-2 cells were maintained in RPMI-1640 medium, supplemented with penicillin/streptomycin and 10% Fetal Bovine Serum (FBS). During the treatment, FBS concentration was reduced to 1%.
(§2) Compound stocks were pre-diluted in DMSO and added directly to the cells growth medium (final DMSO concentration: 0.5%).
(§3) OPM-2 cells were collected, centrifuged (250 rcf, 5 min), resuspended in a growth medium containing 1% FBS and counted. The cell suspension was then adjusted to 1×10^6 cell/ml using a growth medium containing 1% FBS. Afterwards, 0.5×10^6 cells were seeded on 24-well plates in 0.5 mL of medium per well. Immediately after seeding cells, compounds in appropriate concentrations were added to the cell culture medium.
Following the treatment with the compounds, cells were collected from the plates and suspended in a lysis buffer (2% SDS, 50 mM Tris, pH 8.0, 100 U/ml Pierce Universal Nuclease for Cell Lysis, complete EDTA-free Protease Inhibitor Cocktail) and incubated on ice for 45 min. The amount of protein was determined via BCA assay, and the equal quantity of each sample was loaded on the precast gel for the protein separation. Following the electrophoresis and transfer to the membrane, the membrane was stained with Ponceau (0.1% (w/v) Ponceau in 5% acetic acid). After total protein detection, the stain was washed out using TBST. After the antibody staining for MCL-1 and α-tubulin, the membranes were washed and signals developed.
Densitometric values for MCL-1 were normalized to total protein level (the Ponceau Staining). [%] of protein reduction is calculated in comparison to the cells treated with DMSO, which stand for 0%.
The results for the 6 h treatment with 100 nM compounds are shown in Table 9, using the following labels: • <30% for 0-29% of MCL-1 protein reduction, • ≥30% for 30-49% of MCL-1 protein reduction, • ≥50% for 50-100% of MCL-1 protein reduction.

MCL-1 protein [3] = target: T1, MCL-1 protein; test: OPM-2 cells: MCL-1 protein degradation, Simple Western; format: cell-based; parameters: endogenous in cells; host or cells: OPM-2; settings: OPM-2 cell line, 6 h treatment, 100 nM compound, vs DMSO
Text: The effect of various compounds of the invention and the reference compounds on MCL-1protein degradation in the OPM-2 cell line was investigated, using the degradation assay protocol below.
as §1, §2, §3
Following the treatment with the compounds, cells were collected from the plates and suspended in a lysis buffer (2% SDS, 50 mM Tris, pH 8.0, 100 U/ml Pierce Universal Nuclease for Cell Lysis, cOmplete EDTA-free Protease Inhibitor Cocktail) and incubated on ice for 45 min.
The following steps, including sample loading, protein separation, immunoprobing or labelling, washes and detection analysis was performed using Jess from ProteinSimple, an automatic system for analyzing protein levels in cell lysates (12-230 kDa Jess or Wes separation module 8×25 capillaries, protein normalization assay, no. SM-PN01-1). The Protein of Interest was detected using MCL-1 (D35A5) Rabbit monoclonal antibody (Cell Signaling, #5453, LOT: 4). Antibody was diluted in a ratio of 1:100 in Antibody diluent.
[%] of protein reduction is calculated in comparison to the cells treated with DMSO, which stand for 0%.
The results for the 6 h treatment with 100 nM compounds are shown in Table 9, using the following labels: • <20% for 0-19% of MCL-1 protein reduction, • ≥20% for 20-39% of MCL-1 protein reduction, • ≥40% for 40-100% of MCL-1 protein reduction.

OPM-2 cells = test: Cell viability assay (CellTiter-Glo), OPM-2; format: cell-based; settings: Homo sapiens, 24 hours incubation, 1% FBS, read-out: Average pIC50 by molecule OPM-2 (converted)
Text: The effect of various compounds of the invention on the viability of OPM-2, MV-4-11 and ARH-77 cell lines was investigated, using the CTG protocol described below.
OPM-2 and MV-4-11 cell lines are derived from multiple myeloma and acute myeloid leukaemia, respectively. Both cell lines are described in the literature as MCL-1 dependent lines, as opposed to lymphoblast-like ARH-77 cell line, which is described as independent of MCL-1 (Tron A E et al. Nat Commun. 2018; 9: 5341; Caenepeel S et al. Cancer Discov. 2018 December; 8(12):1582-1597).
Cells (OPM-2, MV-4-11 or ARH-77) were seeded on […] in a growth medium with FBS reduced to 1%. Next, compound stocks were pre-diluted in DMSO and added directly to the cells growth medium (final DMSO concentration: 0.5%). Compound concentrations used in this assay: 1/3 dilutions starting at 30 uM (9 to 12 points).
After 24 hours of incubation, cell viability was evaluated using CellTiter-Glo Luminescent Cell Viability Assay (Promega, cat #G7572). Luminescence signal was measured using a CLARIOstar Plus Multi-Mode Microplate Reader (574-590 nm).
Results were normalized to DMSO control.

iCELL Cardiomyocytes = test: Cardiac safety: caspase 3 and 7 activation (Caspase-Glo 3/7) in iCELL Cardiomyocytes; format: cell-based; settings: for Fold change at 1.2 uM (caspase 3/7 activity in cardiomyocytes): 24 hours incubation, vs DMSO; for activity in caspase activity assay in cardiomyocytes: as opposed to reference compound AZD5991
Text: The effect of various compounds of the invention and a reference compound AZD5991 on cardiac safety was investigated by the evaluation of caspase 3 and 7 activation using Caspase-Glo 3/7 Assay (Promega; G8092) in iCELL™ Cardiomyocytes from FUJIFILM Cellular Dynamics (Catalog number: 11713). In the Caspase-Glo® 3/7 Assay, the luminescence (measured as Relative Luciferase Units, RLU) is proportional to the amount of caspase activity present in each sample.
The assay is initiated by thawing and seeding iCell® Cardiomyocytes as specified in the User Guide. After 48 hours, the cells are washed to remove unattached cells and debris and immediately treated with compounds or DMSO diluted in the maintenance medium (FCDI; cat: M1003). Compound concentrations used in this assay: 7 points 1/3 dilution curve starting at 100 uM. After 24 hours of incubation with compounds, caspase activity is measured by the addition of the Caspase-Glo® 3/7 Reagent followed by the luminescence measurement.
The analysis of the results is performed by calculation of the fold change in caspase 3/7 activity at a given compound concentration. Fold change is calculated with the formula: […]
where: • RLU Xi is the Relative Luciferase Units of sample I; • RLU BG is the Background Relative Luciferase Units; • RLU C is the Relative Luciferase Units of Control (DMSO).
The experiments were performed in technical duplicates.

[MCL-1]-[compound of formula (I)]-[CRBN/DDB1] complex, sequence (Q07820 whole entry): as above
[MCL-1]-[compound of formula (I)]-[CRBN/DDB1] complex, sequence (Q96SW2 whole entry): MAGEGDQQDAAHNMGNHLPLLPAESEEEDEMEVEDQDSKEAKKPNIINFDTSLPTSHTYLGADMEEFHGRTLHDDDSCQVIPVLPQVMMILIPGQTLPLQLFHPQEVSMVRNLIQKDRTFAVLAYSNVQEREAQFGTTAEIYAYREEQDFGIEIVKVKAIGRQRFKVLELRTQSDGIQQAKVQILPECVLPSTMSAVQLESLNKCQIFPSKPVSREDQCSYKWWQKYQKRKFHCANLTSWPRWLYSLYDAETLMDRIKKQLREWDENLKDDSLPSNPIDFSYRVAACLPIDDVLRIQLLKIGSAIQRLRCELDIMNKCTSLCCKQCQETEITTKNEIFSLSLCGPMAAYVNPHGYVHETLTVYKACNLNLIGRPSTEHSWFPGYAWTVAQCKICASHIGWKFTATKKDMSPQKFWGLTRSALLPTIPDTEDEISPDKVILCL
[MCL-1]-[compound of formula (I)]-[CRBN/DDB1] complex, sequence (Q16531 whole entry partner): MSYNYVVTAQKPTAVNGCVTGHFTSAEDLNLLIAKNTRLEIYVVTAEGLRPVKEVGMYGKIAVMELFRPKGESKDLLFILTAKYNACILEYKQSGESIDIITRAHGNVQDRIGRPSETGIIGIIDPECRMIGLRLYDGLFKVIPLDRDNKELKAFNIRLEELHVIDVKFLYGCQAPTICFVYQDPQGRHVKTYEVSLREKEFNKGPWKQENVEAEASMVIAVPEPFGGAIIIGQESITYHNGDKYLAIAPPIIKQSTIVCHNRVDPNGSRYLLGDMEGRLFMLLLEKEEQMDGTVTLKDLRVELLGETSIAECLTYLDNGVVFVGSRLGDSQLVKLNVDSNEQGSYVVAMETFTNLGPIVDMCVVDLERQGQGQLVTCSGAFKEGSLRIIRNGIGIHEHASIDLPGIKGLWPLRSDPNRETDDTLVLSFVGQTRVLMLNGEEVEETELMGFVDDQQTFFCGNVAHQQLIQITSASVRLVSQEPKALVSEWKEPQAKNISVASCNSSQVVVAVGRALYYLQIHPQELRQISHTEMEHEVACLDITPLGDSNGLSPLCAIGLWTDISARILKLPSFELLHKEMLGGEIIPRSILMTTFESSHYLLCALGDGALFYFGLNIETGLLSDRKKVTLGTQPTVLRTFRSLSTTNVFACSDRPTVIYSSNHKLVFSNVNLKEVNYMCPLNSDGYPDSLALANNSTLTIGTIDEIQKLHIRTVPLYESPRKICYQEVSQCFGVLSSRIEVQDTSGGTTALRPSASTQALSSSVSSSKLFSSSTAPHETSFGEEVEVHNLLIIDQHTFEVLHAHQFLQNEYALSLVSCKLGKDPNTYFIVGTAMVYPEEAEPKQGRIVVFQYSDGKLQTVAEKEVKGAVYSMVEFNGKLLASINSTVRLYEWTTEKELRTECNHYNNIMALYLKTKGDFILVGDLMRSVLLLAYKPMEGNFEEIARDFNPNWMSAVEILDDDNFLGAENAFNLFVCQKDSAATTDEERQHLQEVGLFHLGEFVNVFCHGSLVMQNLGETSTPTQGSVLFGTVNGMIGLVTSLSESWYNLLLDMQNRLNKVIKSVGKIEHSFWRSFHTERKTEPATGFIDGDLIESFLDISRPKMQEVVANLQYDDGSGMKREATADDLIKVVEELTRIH

Structure (SMILES) | EC50 [1] [nM] | IC50 (MV-4-11 cells) [nM] | Western blot, % of protein reduction (MCL-1 protein [2]) [%] | Simple Western, % of protein reduction (MCL-1 protein [3]) [%] | IC50 (OPM-2 cells) [nM] | Fold change at 1.2 uM (caspase 3/7 activity in cardiomyocytes) (iCELL Cardiomyocytes) | activity in caspase activity assay in cardiomyocytes (iCELL Cardiomyocytes)
Cc1nn(C)c(C)c1-c1cccc2c(CCCOc3cccc4ccccc34)c(C(=O)O)n(CCN3CCN(C(=O)COc4cccc5c4C(=O)N(C4CCC(=O)NC4=O)C5=O)CC3)c12 (stereo not shown) [Compound 241, 1-(2-(4-(2-((2-(2,6-dioxopiperidin-3-yl)-1,3-dioxoisoindolin-4-yl)oxy)acetyl)piperazin-1-yl)ethyl)-3-(3-(naphthalen-1-yloxy)propyl)-7-(1,3,5-trimethyl-1H-pyrazol-4-yl)-1H-indole-2-carboxylic acid] | < 100 | ≤ 1000 | ≥50 | ≥20 | – | – | –
Cc1nn(C)c(C)c1-c1c(Cl)ccc2c(CCCOc3cccc4cc(F)ccc34)c(C(=O)O)n(CCN3CCN(C(=O)COc4cccc5c4C(=O)N(C4CCC(=O)NC4=O)C5=O)CC3)c12 (stereo not shown) [Compound 214, 6-chloro-1-{2-[4-(2-{(2-(2,6-dioxopiperidin-3-yl)-1,3-dioxo-2,3-dihydro-1H-isoindol-4-yl]oxy}acetyl)piperazin-1-yl]ethyl}-3-{3-[(6-fluoronaphthalen-1-yl)oxy]propyl}-7-(1,3,5-trimethyl-1H-pyrazol-4-yl)-1H-indole-2-carboxylic acid] | < 10 | ≤ 100 | ≥50 | ≥40 | ≤ 316 | ≤1.5 ± 0.2 | little to no activity
Cc1nn(C)c(C)c1-c1c(Cl)ccc2c(CCCOc3cccc4ccccc34)c(C(=O)O)n(CCN3CCN(C(=O)COc4cccc5c4CN(C4CCC(=O)NC4=O)C5=O)CC3)c12 (stereo not shown) [Compound 206, 6-chloro-1-(2-(4-(2-((2-(2,6-dioxopiperidin-3-yl)-1-oxoisoindolin-4-yl)oxy)acetyl)piperazin-1-yl)ethyl)-3-(3-(naphthalen-1-yloxy)propyl)-7-(1,3,5-trimethyl-1H-pyrazol-4-yl)-1H-indole-2-carboxylic acid] | < 100 | ≤ 100 | ≥50 | ≥40 | ≤ 316 | ≤1.5 ± 0.2 | little to no activity
Cc1nn(C)c(C)c1-c1c(Cl)ccc2c(CCCOc3cccc4ccccc34)c(C(=O)O)n(CCN3CCN(C(=O)Cn4c(C)nc5c(C(=O)NC6CCC(=O)NC6=O)cccc54)CC3)c12 (stereo not shown) [Compound 266, 6-chloro-1-{2-[4-(2-{4-[(2,6-dioxopiperidin-3-yl)carbamoyl]-2-methyl-1H-1,3-benzodiazol-1-yl}acetyl)piperazin-1-yl]ethyl}-3-[3-(naphthalen-1-yloxy)propyl]-7-(1,3,5-trimethyl-1H-pyrazol-4-yl)-1H-indole-2-carboxylic acid] | < 100 | ≤ 100 | – | ≥40 | ≤ 316 | ≤1.5 ± 0.2 | little to no activity
Cc1nc2c(C(=O)NC3CCC(=O)NC3=O)cc(OCC(=O)N3CCN(CCn4c(C(=O)O)c(CCCOc5cccc6ccccc56)c5ccc(Cl)c(-c6c(C)nn(C)c6C)c54)CC3)cc2[nH]1 (stereo not shown) [Compound 263, 6-chloro-1-(2-{4-[2-({4-[(2,6-dioxopiperidin-3-yl)carbamoyl]-2-methyl-1H-1,3-benzodiazol-6-yl}oxy)acetyl]piperazin-1-yl}ethyl)-3-[3-(naphthalen-1-yloxy)propyl]-7-(1,3,5-trimethyl-1H-pyrazol-4-yl)-1H-indole-2-carboxylic acid] | < 100 | ≤ 316 | ≥50 | ≥40 | ≤ 1000 | – | –
Cc1cc(OCCCc2c(C(=O)O)n(CCN3CCN(C(=O)COc4cccc5c4C(=O)N(C4CCC(=O)NC4=O)C5=O)CC3)c3c(-c4c(C)nn(C)c4C)c(Cl)ccc23)cc(C)c1Cl (stereo not shown) [Compound 201, 6-chloro-3-(3-(4-chloro-3,5-dimethylphenoxy)propyl)-1-(2-(4-(2-((2-(2,6-dioxopiperidin-3-yl)-1,3-dioxoisoindolin-4-yl)oxy)acetyl)piperazin-1-yl)ethyl)-7-(1,3,5-trimethyl-1H-pyrazol-4-yl)-1H-indole-2-carboxylic acid] | < 100 | ≤ 100 | ≥50 | ≥20 | ≤ 1000 | – | –

From US20240294499A1, “TARGETED PROTEIN DEGRADATION USING BIFUNCTIONAL COMPOUNDS THAT BIND UBIQUITIN LIGASE AND TARGET MCL-1 PROTEIN” (Captor Therapeutics S.A., priority 2021, published 2024)
